Data from ChEMBL document CHEMBL1201862, “PubChem BioAssay data set” (2004).
The source made the active and inactive calls.

How the values were obtained:
cells [1] = assay type: functional
[2] = molecular target: T1, Zinc finger protein mex-5 (Caenorhabditis elegans, UniProt Q9XUB2); test: MEX-5/TCR-2 RNA interaction inhibitors, dose response, biochemical, C. elegans, fluorescence polarization (AID 1960)
T1 sequence (Q9XUB2 whole entry): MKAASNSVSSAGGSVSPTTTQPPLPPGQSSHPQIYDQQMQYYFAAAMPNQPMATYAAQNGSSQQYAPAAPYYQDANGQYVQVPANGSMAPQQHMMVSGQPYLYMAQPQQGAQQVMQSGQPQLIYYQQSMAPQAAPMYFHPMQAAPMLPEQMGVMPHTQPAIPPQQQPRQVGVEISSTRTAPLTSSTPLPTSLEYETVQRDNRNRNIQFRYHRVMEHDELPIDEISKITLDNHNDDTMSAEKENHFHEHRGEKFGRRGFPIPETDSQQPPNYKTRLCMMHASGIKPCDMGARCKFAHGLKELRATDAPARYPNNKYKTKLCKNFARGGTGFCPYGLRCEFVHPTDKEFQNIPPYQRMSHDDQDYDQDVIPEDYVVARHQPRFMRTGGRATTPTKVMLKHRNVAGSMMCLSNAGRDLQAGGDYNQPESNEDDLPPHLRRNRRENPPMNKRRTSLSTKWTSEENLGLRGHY

[3] = molecular target: T2, RNA-binding protein pos-1 (Caenorhabditis elegans, UniProt G5EF15); test: inhibitors of POS-1/mex-3 RNA binding, dose response, biochemical, fluorescence polarization (AID 1964);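 also: purified POS-1 fused to maltose binding protein made in E. coli; potency of compounds blocking POS-1 binding to fluorescent RNA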
T2 sequence (G5EF15 whole entry): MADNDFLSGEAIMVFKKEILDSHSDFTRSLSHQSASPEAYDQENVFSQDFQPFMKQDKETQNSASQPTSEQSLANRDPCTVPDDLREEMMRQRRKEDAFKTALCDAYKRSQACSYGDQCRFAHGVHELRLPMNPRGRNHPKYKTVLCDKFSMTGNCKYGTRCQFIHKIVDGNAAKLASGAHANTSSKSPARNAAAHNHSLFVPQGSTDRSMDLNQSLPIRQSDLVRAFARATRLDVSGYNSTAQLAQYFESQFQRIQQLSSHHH

cells [4] = assay type: functional, cell-based
cells [5] = assay type: functional, cell-based; remark: listed apart in the source
Streptococcus = test: Group A Streptococcus viability loss, dose response, counter-screen for streptokinase expression inhibitor project, luminescence, BacTiterGlo (AID 1915); assay type: functional, organism-based;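 also: potency for reduction of bacterial viability or growth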
[6] = tested on: Streptococcus sp. 'group A'; test: growth inhibition of control SK(-) GAS strain, dose response, counter-screen for streptokinase expression inhibitor project, luminescence, kanamycin, BacTiterGlo, confirmation (AID 1900); assay type: functional, organism-based
Cytochrome P450 3A4 = Cytochrome P450 3A4 (Homo sapiens, UniProt P08684);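 also: CYP3A4 tested as one member of a cytochrome P450 panel screen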
Sequence of Cytochrome P450 3A4 (P08684 whole entry): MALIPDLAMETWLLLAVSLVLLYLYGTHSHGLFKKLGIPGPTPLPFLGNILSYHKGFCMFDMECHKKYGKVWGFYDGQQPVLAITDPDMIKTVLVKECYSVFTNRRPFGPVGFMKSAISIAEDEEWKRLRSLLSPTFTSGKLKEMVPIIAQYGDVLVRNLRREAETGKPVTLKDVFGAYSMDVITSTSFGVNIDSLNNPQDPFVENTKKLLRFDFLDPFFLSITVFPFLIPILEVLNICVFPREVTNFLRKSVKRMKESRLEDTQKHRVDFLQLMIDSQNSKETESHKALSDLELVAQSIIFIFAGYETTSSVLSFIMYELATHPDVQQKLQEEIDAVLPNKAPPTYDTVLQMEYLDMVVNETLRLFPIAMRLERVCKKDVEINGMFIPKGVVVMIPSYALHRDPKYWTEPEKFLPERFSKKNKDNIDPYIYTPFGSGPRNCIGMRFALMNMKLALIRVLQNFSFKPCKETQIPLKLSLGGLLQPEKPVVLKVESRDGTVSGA

Cytochrome P450 1A2 = molecular target: T3, Cytochrome P450 1A2 (Homo sapiens, UniProt P05177);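 also: PubChem cytochrome P450 panel assay, CYP1A2 panel member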
T3 sequence (P05177 whole entry): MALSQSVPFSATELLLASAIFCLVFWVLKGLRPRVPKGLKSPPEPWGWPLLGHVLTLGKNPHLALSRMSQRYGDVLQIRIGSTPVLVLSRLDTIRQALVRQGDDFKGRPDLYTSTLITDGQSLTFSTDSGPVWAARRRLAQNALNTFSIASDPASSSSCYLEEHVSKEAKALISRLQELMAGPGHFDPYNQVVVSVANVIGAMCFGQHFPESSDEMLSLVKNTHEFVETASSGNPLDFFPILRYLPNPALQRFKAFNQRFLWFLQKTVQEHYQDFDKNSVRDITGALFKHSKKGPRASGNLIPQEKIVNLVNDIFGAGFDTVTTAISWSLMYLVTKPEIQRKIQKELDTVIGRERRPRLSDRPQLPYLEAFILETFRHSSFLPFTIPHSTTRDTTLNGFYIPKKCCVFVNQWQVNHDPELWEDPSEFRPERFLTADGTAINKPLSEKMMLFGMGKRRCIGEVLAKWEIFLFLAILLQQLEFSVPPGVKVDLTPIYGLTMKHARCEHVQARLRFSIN

[7] = molecular target: T4, Corticotropin-releasing factor receptor 2/Corticotropin-releasing factor-binding protein (Homo sapiens, UniProt P24387+Q13324); test: activators of CRF receptor 2 with binding protein – uHTS hits, confirmation (AID 602473); assay type: functional; conditions: read-out: EC50_Mean
T4 sequence (Q13324 whole entry): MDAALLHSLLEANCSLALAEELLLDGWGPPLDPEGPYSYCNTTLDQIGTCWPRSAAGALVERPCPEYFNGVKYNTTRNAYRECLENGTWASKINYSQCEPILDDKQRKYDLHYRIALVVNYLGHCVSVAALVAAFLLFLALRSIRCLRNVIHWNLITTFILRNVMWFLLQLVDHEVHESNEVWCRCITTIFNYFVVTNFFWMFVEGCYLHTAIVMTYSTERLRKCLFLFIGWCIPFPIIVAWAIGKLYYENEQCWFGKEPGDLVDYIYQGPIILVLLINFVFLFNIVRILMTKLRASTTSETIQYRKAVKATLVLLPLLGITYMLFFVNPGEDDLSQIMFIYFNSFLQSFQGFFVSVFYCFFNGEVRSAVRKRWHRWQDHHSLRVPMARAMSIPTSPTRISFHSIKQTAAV
T4 sequence (P24387 whole entry): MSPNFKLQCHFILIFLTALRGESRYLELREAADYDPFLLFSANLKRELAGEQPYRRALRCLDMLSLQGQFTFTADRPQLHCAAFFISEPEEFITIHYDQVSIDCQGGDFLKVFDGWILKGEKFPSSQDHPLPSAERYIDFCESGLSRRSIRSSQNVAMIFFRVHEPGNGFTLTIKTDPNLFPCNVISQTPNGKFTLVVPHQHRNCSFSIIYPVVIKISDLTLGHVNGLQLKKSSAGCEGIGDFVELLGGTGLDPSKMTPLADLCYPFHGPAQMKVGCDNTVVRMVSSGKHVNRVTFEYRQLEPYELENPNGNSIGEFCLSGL

H4 = test: Luminescence Cell-Based Dose Response HTS to Identify Activators of 5'UTR Stem-Loop Driven Prion Protein mRNA Translation in H4 Neuroglioblastoma Cells. [Related pubchem assays: 1829 (Project Summary), 1814 (Primary HTS)]; assay type: functional; conditions: Homo sapiens
[8] = Luminescence Cell-Based Dose Response HTS to Identify Activators of Luciferase Translation or Activity in H4 […] Cells. [Related pubchem assays: 1829 (Project Summary), 1814 (Primary HTS)]; assay type: functional
[9] = Luminescence Cell-Based Dose Response HTS to Identify Inhibitors of 5'UTR Stem-Loop Driven Prion Protein mRNA Translation in H4 Neuroglioblastoma Cells. [Related pubchem assays: 1827 (Project Summary), 1813 (Primary HTS)]; assay type: functional
[10] = inhibitors of SNCA 5'UTR-driven reporter translation, confirmation, H4 neuroglioma cells, luminescence (AID 1988); assay type: functional, cell-based
[11] = inhibitors of firefly luciferase expression or activity, dose response, H4 neuroglioma cells, luminescence (AID 1990); assay type: functional, cell-based
Cytochrome P450 2C19 = Cytochrome P450 2C19 (Homo sapiens, UniProt P33261); test: Cytochrome panel assay with activity outcomes. Panel member name: p450-cyp2c19 Compounds with AC50 equal or less than 10 uM are considered active; assay type: functional
Sequence of Cytochrome P450 2C19 (P33261 whole entry): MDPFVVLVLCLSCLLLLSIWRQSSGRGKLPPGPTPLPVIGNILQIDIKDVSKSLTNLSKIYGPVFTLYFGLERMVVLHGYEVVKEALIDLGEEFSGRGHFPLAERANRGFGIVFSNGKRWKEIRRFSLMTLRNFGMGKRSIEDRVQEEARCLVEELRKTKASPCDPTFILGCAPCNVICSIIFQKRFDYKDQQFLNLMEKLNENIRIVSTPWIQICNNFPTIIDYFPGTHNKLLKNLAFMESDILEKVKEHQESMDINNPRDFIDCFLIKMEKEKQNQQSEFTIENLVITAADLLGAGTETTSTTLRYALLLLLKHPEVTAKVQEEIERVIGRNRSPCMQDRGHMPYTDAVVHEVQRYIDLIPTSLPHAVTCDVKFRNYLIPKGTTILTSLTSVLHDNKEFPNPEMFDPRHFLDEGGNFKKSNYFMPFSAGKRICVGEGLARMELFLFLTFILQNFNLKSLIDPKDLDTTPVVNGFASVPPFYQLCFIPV

INS1 = test: beta cell apoptosis inhibitors, cytokine rescue, dose response, luminescence, retest (AID 449756); assay type: functional, cell-based; conditions: Rattus norvegicus;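 also: cell death triggered by IL-1 beta plus TNF-alpha plus IFN-gamma mixture; protective hits raise ATP signal compared with cytokine alone wells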
[12] = cytotoxicity toward NIH3T3 fibroblasts, dose response, counter-screen, cell-based, ATP luminescence, mouse fibroblasts (AID 2010); assay type: functional;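 also: cells exposed to compound for about 90 hours before reading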
[13] = inhibitors of intracellular T. cruzi replication, confirmation, NIH3T3 host cells, beta-gal luminescence (AID 2044); assay type: functional, cell-based;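 also: intracellular parasites grown in NIH/3T3 mouse fibroblasts as host cells; luminescent beta-galactosidase reporter signal from transgenic T. cruzi replicating inside host cells; inhibitors lower the luminescence signal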

COC(=O)CCCC(=O)N1CCCC(C(=O)c2ccc(-c3ccccc3)cc2)C1 (configuration not stated)
IC50 (cells [1]): > 50 µM (active)

CCN1C(=O)/C(=C\c2cccs2)C(C(=O)OC)=C1C
EC50 [2]: > 300 µM (not active)
EC50 [3]: > 300 µM (not active)

CC(=O)Nc1nc(C)c(-c2csc(Nc3ccccn3)n2)s1
EC50 (cells [4]): 5.87 µM (active)
EC50 (cells [5]): > 350 µM (not active)

COc1ccc(CC(=O)NN=C(S)NCC2CC2)cc1OC
EC50 (cells [4]): > 350 µM (not active)
EC50 (cells [5]): > 350 µM (not active)

CCCN(Cc1nnc(-c2ccccc2Cl)o1)C(=O)c1cc([N+](=O)[O-])cc([N+](=O)[O-])c1
IC50 (cells [1]): 5.87 µM (active)

CN1C(=O)/C(=C/c2ccccc2F)Sc2ccc(C(=O)N3CCCC3)cc21
EC50 (Streptococcus): 2.66 µM (active)
EC50 [6]: 1.06 µM (active)

COCCNc1ncnc2ccc(-c3ccccc3CN(C)C)cc12
AC50 (Cytochrome P450 3A4): 31.6 µM (inconclusive)
AC50 (Cytochrome P450 1A2): 25.1 µM (inconclusive)

O=C1NC(=O)N(c2cccc(Cl)c2)C(=O)/C1=C\Nc1ccccn1
EC50 [2]: > 300 µM (not active)
EC50 [3]: > 300 µM (not active)

COc1ccc(C2C(C#N)=C(N)Oc3cc(O)ccc32)cc1C (configuration not stated)
EC50 [7]: > 53 µM (inactive)

CCOc1ccc(C(=O)CSc2nnc3ccccn23)cc1
EC50 (H4): > 120 µM (not active)
EC50 [8]: 35.7 µM (active)

CCc1ccc(NC(=O)COc2ccc3c(c2)OCO3)cc1
IC50 (cells [1]): > 50 µM (active)

COC(=O)CCCC1=CC2=CC(=O)C(C)(OC(=O)c3ccco3)C(=O)C2=CO1 (configuration not stated)
EC50 [2]: 22.3 µM (active)
EC50 [3]: 274 µM (inconclusive)

O=C(COC(=O)c1ccc(Cl)s1)c1ccc[nH]1
IC50 (cells [1]): 5.77 µM (active)

Cc1cc(=O)oc2cc(OCC(=O)N3CCN(c4ccc(F)cc4)CC3)ccc12
EC50 (cells [4]): > 350 µM (not active)
EC50 (cells [5]): > 350 µM (not active)

CCOc1ccccc1N1CCN(C(=S)NC(=O)C23CC4CC(CC(C4)C2)C3)CC1
EC50 (cells [4]): > 350 µM (not active)
EC50 [9]: 24.5 µM (active)
EC50 (cells [5]): > 350 µM (not active)
EC50 [10]: 17.3 µM (active)
EC50 [11]: > 120 µM (not active)

Cc1ccc(C(=O)Nc2nccs2)cc1
IC50 (cells [1]): 41.4 µM (active)

O=C(c1ccccc1)c1cc2cc(Cl)ccc2[nH]1
EC50 (H4): 13.9 µM (active)
EC50 [8]: 94.6 µM (active)

CCOc1ccc(C2=NN=C(c3ccc(N4CCOCC4)cc3)c3ccccc3N2)cc1
EC50 (H4): > 120 µM (not active)
EC50 [8]: 30.1 µM (active)

CS(=O)(=O)c1cccc(C(=O)N(CCc2ccccc2)Cc2cccs2)c1
EC50 (cells [4]): > 350 µM (not active)
EC50 (cells [5]): > 350 µM (not active)

CC(NC(=O)c1cc2c(s1)CS(=O)(=O)C2)c1ccccc1 (configuration not stated)
EC50 (cells [4]): > 350 µM (not active)
EC50 (cells [5]): > 350 µM (not active)

Cc1nc2nc3c(cn2n1)C(=O)CC(c1ccccc1)C3 (configuration not stated)
EC50 (cells [5]): > 350 µM (not active)

c1ccc2[nH]c(NC3=NCCC3)nc2c1
IC50 (cells [1]): 12.2 µM (active)
AC50 (Cytochrome P450 2C19): inconclusive

O=C(c1ccccc1-c1nc(-c2ccccc2)no1)N1CCOCC1
AC50 (Cytochrome P450 3A4): 28.2 µM (inconclusive)
AC50 (Cytochrome P450 1A2): 39.8 µM (inconclusive)

CCOC(=O)N1CCC(NC(=O)c2cc(S(=O)(=O)N3CCCC3)cn2C)CC1
AC50 (Cytochrome P450 3A4): 14.1 µM (inconclusive)
AC50 (Cytochrome P450 2C19; read-out: AC50): 8.91 µM (inconclusive)

CCc1cccc(C)c1NC(=S)N1CCCCC1c1cccnc1 (configuration not stated)
EC50 [7]: 6.05 µM (active)

C=CCN1C(c2cccc(C(F)(F)F)c2)=CS/C1=C(\C#N)c1nnc(N2CCOCC2)n1-c1ccccc1
EC50 [7]: > 53 µM (inactive)

CN(C)c1ccc(C=NN2C(=O)CSC2=S)c(Cl)c1
EC50 [7]: > 53 µM (inactive)

O=C(CNS(=O)(=O)c1ccc([N+](=O)[O-])cc1)N/N=C\c1ccc(O)cc1
EC50 [7]: 7.12 µM (active)

COc1ccccc1N1CCN(CCn2c(=O)[nH]c3c([nH]c4ccccc43)c2=O)CC1
AC50 (Cytochrome P450 3A4): 15.8 µM (inconclusive)
AC50 (Cytochrome P450 1A2): 39.8 µM (inconclusive)

COc1ccccc1N(CC(=O)N/N=C/c1c(O)ccc2ccccc12)S(C)(=O)=O
EC50 [9]: 22.8 µM (active)
EC50 (cells [5]): 9.19 µM (active)
EC50 [10]: 8.56 µM (active)
AC50 (INS1): 2.15 µM (active)
EC50 [11]: 13.5 µM (active)

C/C(Cn1nnc([N+](=O)[O-])n1)=N\NC(=O)c1ccncc1
EC50 [12]: > 30 µM (not active)
EC50 [13]: 0.214 µM (active)
IC50 (cells [1]): 0.3 µM (active)

Cc1ccc(/C=N/NC(=O)c2ccc(Br)o2)s1
EC50 (cells [4]): 37.1 µM (active)
EC50 (cells [5]): > 350 µM (not active)

COc1ccccc1N1CCN(CCN2C(=O)c3ccccc3C(C)(C)C2=O)CC1
AC50 (Cytochrome P450 3A4): 15.8 µM (inconclusive)
AC50 (Cytochrome P450 1A2): 39.8 µM (inconclusive)
